Measured values from US11014917B2, “5-fluoro-c-(aryl or heterocyclyl)-glycoside derivatives useful as dual SGLT1 / SGLT2 modulators” (Janssen Pharmaceutica NV, priority 2017, dated 2021).

Tests used:
[1] = biological target: T1, human SGLT1 (Homo sapiens, UniProt P13866); experiment: SGLT1 assay: Na-dependent 14C-AMG uptake in CHO-K1 cells stably expressing human SGLT1; format: cell-based; settings: for IC50: average if tested more than once
T1 construct: expressed in transfected cells
T1 sequence (P13866 1-664): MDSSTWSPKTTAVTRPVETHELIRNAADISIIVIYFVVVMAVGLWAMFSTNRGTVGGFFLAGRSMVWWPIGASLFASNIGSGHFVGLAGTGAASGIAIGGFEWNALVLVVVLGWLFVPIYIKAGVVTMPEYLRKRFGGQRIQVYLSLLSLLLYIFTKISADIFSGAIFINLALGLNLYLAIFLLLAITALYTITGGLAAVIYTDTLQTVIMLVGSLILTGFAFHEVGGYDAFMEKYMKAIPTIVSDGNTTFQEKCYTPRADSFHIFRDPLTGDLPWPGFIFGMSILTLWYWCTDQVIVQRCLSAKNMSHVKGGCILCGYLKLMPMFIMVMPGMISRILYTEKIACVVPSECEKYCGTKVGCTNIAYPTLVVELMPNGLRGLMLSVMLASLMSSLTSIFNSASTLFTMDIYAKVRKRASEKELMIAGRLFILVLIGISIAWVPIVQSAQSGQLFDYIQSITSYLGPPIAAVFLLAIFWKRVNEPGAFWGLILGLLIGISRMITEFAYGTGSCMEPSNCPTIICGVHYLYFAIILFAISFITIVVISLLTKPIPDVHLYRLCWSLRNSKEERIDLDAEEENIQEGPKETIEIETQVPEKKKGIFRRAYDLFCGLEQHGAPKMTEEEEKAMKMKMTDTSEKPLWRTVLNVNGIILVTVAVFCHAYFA
Procedure: (§1) The ability of the compounds of formula (I) of the present invention to treat an SGLT-mediated condition was determined using the following procedures:
(§2) SGLT1 and SGLT2 were cloned in form of cDNA from human small intestine (Genbank M24847), and from human kidney (Genbank M95549), respectively. Subsequently, each full cDNA was subcloned into pcDNA with each construct's integrity verified through follow-on sequencing. To generate CHO-K1 cells that stably express human SGLT1 or human SGLT2, CHO-K1 cells were transfected using DMRIE-C reagent (Life Technologies, Gaithersburg, Md.). Transfected cells were then selected in the presence of 500 μg/ml of the Geneticin (G418 Cellgro Catalog No. 30234-Cl)
(§3) Individual clones were then characterized using the following cell-based assay for sodium-dependent glucose transport:
(§4) Inhibition of SGLT1 and SGLT2 activity was assessed in CHO K1 cells stably expressing either human SGLT1 or SGLT2, using the SGLT specific glucose analog methyl-glucopyranoside (Sigma Catalog No. M-9376). Cells were plated (45,000 cells/well) in white wall 96-well plates (COSTAR, Cat #3903) for 24 hours in growth medium, then a final concentration of 10 mM Na-Butyrate (ALDRICH Cat #30341-0) was added. The cells were incubated for 24 hours. On the day of the assay, cells were rinsed and treated with test compounds (at concentrations of 0.001 μM to 10 μM) in assay buffer (50 mM HEPES, 20 mM Tris base, 5 mM KCl, 1 mM MgCl2, 1 mM CaCl2 and 137 mM NaCl, pH 7.4) for 10 minutes. Cells were then incubated with ^14C-a-methyl-d-glucopyranoside (AMG, Amersham Catalog No. CFB 76), using 0.07 μCi per well in 500 μM AMG final concentration. The cells were incubated for 2 hours at 37° C. with 5% CO2 and washed two times with ice-cold Phosphate Buffer Solution (Cellgro Catalog No. 21030-CV). The cells were then solubilized by adding 60 μl of MICROSCINT™20 and the Na-dependent ^14C-AMG uptake was quantified by measuring radioactivity. Plates were counted in a TopCount (Packard, Meriden, Conn.)
(§5) Representative compounds of the present invention were tested according to the procedures as described in Biological Example 1 and 2 above, with results as listed in Table 5, below. Results are reported as the %-inhibition or IC50 value. Variability for the functional assay was typically within 20%.

[2] = biological target: T2, human SGLT2 (Homo sapiens, UniProt P31639); experiment: SGLT2 assay: Na-dependent 14C-AMG uptake in CHO-K1 cells stably expressing human SGLT2; format: cell-based; settings: for IC50: average if tested more than once
T2 construct: expressed in transfected cells
T2 sequence (P31639 1-672): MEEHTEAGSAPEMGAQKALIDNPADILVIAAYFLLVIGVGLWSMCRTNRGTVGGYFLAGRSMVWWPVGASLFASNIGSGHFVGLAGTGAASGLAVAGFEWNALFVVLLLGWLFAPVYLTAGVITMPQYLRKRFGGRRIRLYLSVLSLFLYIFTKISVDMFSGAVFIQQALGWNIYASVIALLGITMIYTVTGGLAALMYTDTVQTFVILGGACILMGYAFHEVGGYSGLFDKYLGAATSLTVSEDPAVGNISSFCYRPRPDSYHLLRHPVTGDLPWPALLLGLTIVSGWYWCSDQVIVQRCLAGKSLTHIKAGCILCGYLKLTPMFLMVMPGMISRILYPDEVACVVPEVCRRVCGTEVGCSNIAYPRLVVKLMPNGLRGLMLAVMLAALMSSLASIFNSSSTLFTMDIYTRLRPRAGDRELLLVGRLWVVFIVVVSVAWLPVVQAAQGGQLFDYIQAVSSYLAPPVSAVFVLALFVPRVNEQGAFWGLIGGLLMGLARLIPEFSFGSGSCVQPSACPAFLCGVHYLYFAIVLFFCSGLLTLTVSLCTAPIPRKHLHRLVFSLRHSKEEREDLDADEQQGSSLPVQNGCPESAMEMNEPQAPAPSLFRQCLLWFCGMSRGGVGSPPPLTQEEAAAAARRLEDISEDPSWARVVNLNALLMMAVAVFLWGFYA
Procedure: as §1, §2, §3, §4, §5

IC50 [1]	IC50 [2]	SGLT1 %-inhibition ([1]; @ 0.3 μM)	SGLT2 %-inhibition ([2]; @ 0.3 μM)	Compound	other results
381 nM	123 nM			Cc1cc(O)c([C@@H]2O[C@H](C(C)(C)O)[C@@H](F)[C@H](O)[C@H]2O)cc1Cc1cc2ccccc2s1 [Compound 39]	
98 nM	10 nM			Cc1cc(CO)c([C@@H]2O[C@H](CO)[C@@H](F)[C@H](O)[C@H]2O)cc1Cc1cc2ccccc2s1 [Compound 42]	
69 nM	11 nM			OC[C@H]1O[C@@H](c2cc3c(c(Cc4ccc5c(c4)OCCO5)c2)OCC3)[C@H](O)[C@@H](O)[C@@H]1F [Compound 54]	
523 nM	12 nM			OC[C@H]1O[C@@H](c2cc3c(c(Cc4ccc5c(c4)CCCO5)c2)OCC3)[C@H](O)[C@@H](O)[C@@H]1F [Compound 56]	
31 nM	9 nM			OC[C@H]1O[C@@H](c2cc(Cc3cc4ccccc4s3)c3c(c2O)CCO3)[C@H](O)[C@@H](O)[C@@H]1F [Compound 59]	
14 nM	3 nM			OC[C@H]1O[C@@H](c2cc(Cc3ccc4c(c3)OCCO4)c3c(c2O)CCO3)[C@H](O)[C@@H](O)[C@@H]1F [Compound 61, (2S,3R,4R,5S,6R)-2-(7-((2,3-dihydrobenzo[b][1,4]dioxin-6-yl)methyl)-4-hydroxy-2,3-dihydrobenzofuran-5-yl)-5-fluoro-6-(hydroxymethyl)tetrahydro-2H-pyran-3,4-diol]	
48 nM	4 nM			CCc1ccc(Cc2cc([C@@H]3O[C@H](CO)[C@@H](F)[C@H](O)[C@H]3O)c(O)c3c2OCC3)cc1 [Compound 62]	
122 nM	4 nM			CCOc1ccc(Cc2cc([C@@H]3O[C@H](CO)[C@@H](F)[C@H](O)[C@H]3O)c(O)c3c2OCC3)cc1 [Compound 63]	
156 nM	36 nM			CCOC(=O)N1CCc2sc(Cc3cc([C@@H]4O[C@H](CO)[C@@H](F)[C@H](O)[C@H]4O)c(O)cc3C)cc2C1 [Compound 64]	
43 nM	9 nM			COc1c([C@@H]2O[C@H](CO)[C@@H](F)[C@H](O)[C@H]2O)cc(Cc2ccc3c(c2)OCCO3)c2c1CCO2 [Compound 65, (2S,3R,4R,5S,6R)-2-(7-((2,3-dihydrobenzo[b][1,4]dioxin-6-yl)methyl)-4-methoxy-2,3-dihydrobenzofuran-5-yl)-5-fluoro-6-(hydroxymethyl)tetrahydro-2H-pyran-3,4-diol]	
40 nM	14 nM			Cc1cc(O)c([C@@H]2O[C@H](CO)[C@@H](F)[C@H](O)[C@H]2O)cc1Cc1cc2c(s1)CCN(C(=O)N1CCCC1)C2 [Compound 66, (2-(5-((2S,3R,4R,5S,6R)-5-fluoro-3,4-dihydroxy-6-(hydroxymethyl)tetrahydro-2H-pyran-2-yl)-4-hydroxy-2-methylbenzyl)-6,7-dihydrothieno[3,2-c]pyridin-5(4H)-yl)(pyrrolidin-1-yl)methanone]	
		64.9% @ 0.3 μM	57.5% @ 0.3 μM	Cc1cc(O)c([C@@H]2O[C@H](CO)[C@@H](F)[C@H](O)[C@H]2O)cc1Cc1cc2c(s1)CCN(C(=O)N1CCOCC1)C2 [Compound 67]	
55 nM	21 nM			Cc1c(Cc2cc3ccccc3s2)cc([C@@H]2O[C@H](CO)[C@@H](F)[C@H](O)[C@H]2O)c2c1CCO2 [Compound 68]	
		20.4% @ 0.3 μM	60.3% @ 0.3 μM	COc1cc(C)c(Cc2cc3c(s2)CCN(C(=O)N2CCOCC2)C3)cc1[C@@H]1O[C@H](CO)[C@@H](F)[C@H](O)[C@H]1O [Compound 69]	
100 nM	162 nM			O=C(N1CCCC1)N1CCc2sc(Cc3cc([C@@H]4O[C@H](CO)[C@@H](F)[C@H](O)[C@H]4O)cc4c3OCC4)cc2C1 [Compound 70]	
240 nM	48 nM			COC(=O)N1CCc2sc(Cc3cc([C@@H]4O[C@H](CO)[C@@H](F)[C@H](O)[C@H]4O)c(O)cc3Cl)cc2C1 [Compound 73]	
		65.5% @ 0.3 μM	65.2% @ 0.3 μM	CC(=O)N1CCc2sc(Cc3cc([C@@H]4O[C@H](CO)[C@@H](F)[C@H](O)[C@H]4O)c(O)cc3Cl)cc2C1 [Compound 74]	
				OCC1COc2c(Cc3ccc4c(c3)OCCO4)cc([C@@H]3O[C@H](CO)[C@@H](F)[C@H](O)[C@H]3O)cc21 (stereo partly drawn) [Compound 75, (2S,3R,4R,5S,6R)-2-(7-((2,3-dihydrobenzo[b][1,4]dioxin-6-yl)methyl)-3-(hydroxymethyl)-2,3-dihydrobenzofuran-5-yl)-5-fluoro-6-(hydroxymethyl)-tetrahydro-2H-pyran-3,4-diol]	inhibition at 0.3 µM ([1]; @ 0.3 μM): 61.9%; inhibition at 0.3 µM ([2]; @ 0.3 μM): 43.7%
		28.6% @ 0.3 μM	72.2% @ 0.3 μM	COC(=O)N1CCc2sc(Cc3cc([C@@H]4O[C@H](CO)[C@@H](F)[C@H](O)[C@H]4O)c(OC)cc3Cl)cc2C1 [Compound 76]	
		30.3% @ 0.3 μM	69.9% @ 0.3 μM	COc1cc(Cl)c(Cc2cc3c(s2)CCN(C(C)=O)C3)cc1[C@@H]1O[C@H](CO)[C@@H](F)[C@H](O)[C@H]1O [Compound 77]	
		28.4% @ 0.3 μM	86.9% @ 0.3 μM	Cc1ccc([C@@H]2O[C@H](CO)[C@@H](F)[C@H](O)[C@H]2O)cc1Cc1cc2c(s1)CCN(C(=O)N1CCCC1)C2 [Compound 78]	
126 nM	137 nM			COc1cc(O)c([C@@H]2O[C@H](CO)[C@@H](F)[C@H](O)[C@H]2O)cc1Cc1cc2c(s1)CCN(C(C)=O)C2 [Compound 79]	
		37.4% @ 0.3 μM	60.4% @ 0.3 μM	COC(=O)N1CCc2sc(Cc3cc([C@@H]4O[C@H](CO)[C@@H](F)[C@H](O)[C@H]4O)ccc3Cl)cc2C1 [Compound 80]	
223 nM	11 nM			COc1cc(C)c(Cc2cc3c(s2)CCN(C(=O)N2CCCC2)C3)cc1[C@@H]1O[C@H](CO)[C@@H](F)[C@H](O)[C@H]1O [Compound 81]	
		42.2% @ 0.3 μM	58.9% @ 0.3 μM	COc1cc(OC)c([C@@H]2O[C@H](CO)[C@@H](F)[C@H](O)[C@H]2O)cc1Cc1cc2c(s1)CCN(C(C)=O)C2 [Compound 82]	
		17.4% @ 0.3 μM	72.3% @ 0.3 μM	COC(=O)N1CCc2sc(Cc3cc([C@@H]4O[C@H](CO)[C@@H](F)[C@H](O)[C@H]4O)c(OC)cc3OC)cc2C1 [Compound 83]	
